Results as given in patent US20260028451A1, “Amido-Amine Hardener” (priority 2022, published 2026).

Columns and labels:
MELN cells = assay type: cell-based, human
Description: The use of bisphenol A in epoxy systems is often avoided for this reason. Various phenolic compounds, such as phenolic Mannich bases may also pose a risk of acting as oestrogen agonists, this is thought to be due to structural similarity between the phenolic group and the phenolic group present in oestrogen itself. […]. The tests were performed using MELN cells [hER-stably transfected model of the human breast cancer MCF-7 cells]. The use of MELN cells for screening cytotoxicity and oestrogenic activity is a standard test known in the art, for example, as described in Berckmans P, Leppens H, Vangenechten C, Witters H., “Screening of endocrine disrupting chemicals with MELN cells, an ER-transactivation assay combined with cytotoxicity assessment”, Toxicol In Vitro. 2007, 21(7), 1262-7.

oestrogen receptor = target: T1, oestrogen receptor (Homo sapiens, UniProt P03372); experiment: Oestrogenic activity testing using MELN cells (ER-transactivation assay); assay type: cell-based; conditions: hER-stably transfected MCF-7
T1 construct: MELN cells [hER-stably transfected model of the human breast cancer MCF-7 cells]; endogenous in cells; host or cells: MELN cells (MCF-7 human breast cancer cells)
T1 sequence (P03372 1-595): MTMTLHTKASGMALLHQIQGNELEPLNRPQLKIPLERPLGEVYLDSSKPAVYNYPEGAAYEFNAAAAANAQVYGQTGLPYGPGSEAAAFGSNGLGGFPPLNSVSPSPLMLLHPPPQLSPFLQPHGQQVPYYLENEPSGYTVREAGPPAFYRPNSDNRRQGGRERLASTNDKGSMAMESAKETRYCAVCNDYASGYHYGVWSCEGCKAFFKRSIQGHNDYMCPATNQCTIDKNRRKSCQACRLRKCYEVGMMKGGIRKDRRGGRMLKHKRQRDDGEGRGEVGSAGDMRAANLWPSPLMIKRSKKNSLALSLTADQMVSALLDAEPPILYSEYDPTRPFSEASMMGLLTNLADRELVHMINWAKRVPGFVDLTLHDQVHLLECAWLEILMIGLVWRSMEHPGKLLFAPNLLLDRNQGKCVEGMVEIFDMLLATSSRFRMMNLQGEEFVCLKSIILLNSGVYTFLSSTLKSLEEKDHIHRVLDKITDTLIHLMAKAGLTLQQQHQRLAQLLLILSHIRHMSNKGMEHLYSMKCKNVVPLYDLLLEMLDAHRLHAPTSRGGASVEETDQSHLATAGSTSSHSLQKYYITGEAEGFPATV
Description: Various phenolic compounds, such as phenolic Mannich bases may also pose a risk of acting as oestrogen agonists, this is thought to be due to structural similarity between the phenolic group and the phenolic group present in oestrogen itself. […] The tests were performed using MELN cells [hER-stably transfected model of the human breast cancer MCF-7 cells].

[1] = Viscosity at 25° C., ASTM D2556-14(2018); assay type: physicochemical; conditions: undiluted curative composition / product as prepared
Description: This material was then diluted with benzyl alcohol in order to reduce the viscosity. The relationship between the viscosity (as measured by ASTM D2556-14(2018)) and the vol % dilution with benzyl alcohol is shown in FIG. 1. […] The properties of a 63:37 vol/vol mixture of salicylamide Mannich base C:benzyl alcohol are shown below in Table 7.

Agonist response (oestrogen receptor) | Viscosity at 25° C. [1] [m · Pas] | Compound | Cytotoxicity (MELN cells)
 |  | C[C@]12CC[C@@H]3c4ccc(O)cc4CC[C@H]3[C@@H]1CC[C@@H]2O [17β- oestradiol, 17β-oestradiol] | No
Negative | 1130 | NCCNCCNCCNCc1cc(CNCCNCCNCCN)c(O)c(C(=O)NCCNCCNCCN)c1 [Salicylamide Mannich Base A] | No
Positive |  | CC(C)(c1ccc(O)cc1)c1ccc(O)cc1 [Bisphenol A, bisphenol A] | No
